Measurements from ChEMBL document CHEMBL4043067, “Synthesis and cytotoxic activities of goniothalamins and derivatives” (Bioorg Med Chem, 2017).

Key:
[1] = system: Saccharomyces cerevisiae; test: Cytotoxicity against Saccharomyces cerevisiae YRE1001 up to 100 ug/ml after 48 hrs by liquid drug assay
[2] = system: HBL-100; test: Antiproliferative activity against human HBL100 cells after 48 hrs by CellTiter-Glo luminescent cell viability assay; format: functional, cell-based; settings: HBL-100, 48 h
[3] = system: A549; test: Antiproliferative activity against human A549 cells after 48 hrs by CellTiter-Glo luminescent cell viability assay; format: functional, cell-based; settings: A549, 48 h
[4] = system: MCF7; test: Antiproliferative activity against human MCF7 cells after 48 hrs by CellTiter-Glo luminescent cell viability assay; format: functional, cell-based; settings: MCF7, 48 h
[5] = system: Saccharomyces cerevisiae; test: Inhibition of Pdr5 ATPase activity in Saccharomyces cerevisiae YRE1001 plasma membranes assessed as residual activity at 50 ug/ml after 20 mins in presence of ATP by colorimetric assay relative to control
[6] = system: Saccharomyces cerevisiae; test: Inhibition of Pdr5 ATPase activity in Saccharomyces cerevisiae YRE1001 plasma membranes assessed as residual activity at 5 ug/ml after 20 mins in presence of ATP by colorimetric assay relative to control
[7] = system: Saccharomyces cerevisiae; test: Inhibition of Pdr5 ATPase activity in Saccharomyces cerevisiae YRE1001 plasma membranes assessed as residual activity at 500 ug/ml after 20 mins in presence of ATP by colorimetric assay relative to control
[8] = system: Saccharomyces cerevisiae; test: Inhibition of Pdr5 in Saccharomyces cerevisiae YRE1001 plasma membranes assessed as reduction in rhodamine 6G transport by measuring relative fluorescence intensity at 50 ug/ml preincubated with enzyme followed by ATP addition measured for 20 mins by fluorescence assay relative to control; set-up: scale not given: the % may be the effect or the level left
[9] = system: Saccharomyces cerevisiae; test: Inhibition of Pdr5 in Saccharomyces cerevisiae YRE1001 plasma membranes assessed as reduction in rhodamine 6G transport by measuring relative fluorescence intensity at 5 ug/ml preincubated with enzyme followed by ATP addition measured for 20 mins by fluorescence assay relative to control; set-up: scale not given: the % may be the effect or the level left
[10] = system: Saccharomyces cerevisiae; test: Inhibition of Pdr5 in Saccharomyces cerevisiae YRE1001 plasma membranes assessed as reduction in rhodamine 6G transport by measuring relative fluorescence intensity at 500 ug/ml preincubated with enzyme followed by ATP addition measured for 20 mins by fluorescence assay relative to control; set-up: scale not given: the % may be the effect or the level left
[11] = system: Saccharomyces cerevisiae; test: Inhibition of Pdr5 ATPase activity in Saccharomyces cerevisiae YRE1001 plasma membranes assessed as residual activity at 125 ug/ml after 20 mins in presence of ATP by colorimetric assay relative to control
[12] = system: Saccharomyces cerevisiae; test: Inhibition of Pdr5 ATPase activity in Saccharomyces cerevisiae YRE1001 plasma membranes assessed as residual activity at 13 ug/ml after 20 mins in presence of ATP by colorimetric assay relative to control
[13] = system: Saccharomyces cerevisiae; test: Inhibition of Pdr5 ATPase activity in Saccharomyces cerevisiae YRE1001 plasma membranes assessed as residual activity at 250 ug/ml after 20 mins in presence of ATP by colorimetric assay relative to control
[14] = system: Saccharomyces cerevisiae; test: Inhibition of Pdr5 in Saccharomyces cerevisiae YRE1001 plasma membranes assessed as reduction in rhodamine 6G transport by measuring relative fluorescence intensity at 125 ug/ml preincubated with enzyme followed by ATP addition measured for 20 mins by fluorescence assay relative to control; set-up: scale not given: the % may be the effect or the level left
[15] = system: Saccharomyces cerevisiae; test: Inhibition of Pdr5 in Saccharomyces cerevisiae YRE1001 plasma membranes assessed as reduction in rhodamine 6G transport by measuring relative fluorescence intensity at 13 ug/ml preincubated with enzyme followed by ATP addition measured for 20 mins by fluorescence assay relative to control; set-up: scale not given: the % may be the effect or the level left

Row | IC50 [3] [µM] | IC50 [4] [µM] | Activity [5] [%] | Activity [6] [%] | Activity [7] [%] | Activity [8] [%] | Activity [9] [%] | Activity [10] [%] | Activity [11] [%] | Activity [12] [%] | Activity [13] [%] | Activity [14] [%] | Activity [15] [%] | SMILES | Activity [1] | IC50 [2] [µM]
1 | > 100 | > 100 |  |  |  |  |  |  |  |  |  |  |  | O=C1CCC[C@@H]([C@H]2C[C@@H]2c2ccccc2)O1 | Toxic | > 100
2 | 34.7 | > 100 |  |  |  |  |  |  |  |  |  |  |  | O=C1C=CCC(/C=C/c2ccccc2)O1 (racemic) | Toxic | 22.4
3 | 68.6 | > 100 | 74.7 | 88 | 53 | 37 | 86 | 0 |  |  |  |  |  | O=C1C=CC[C@@H](/C=C/C2CCCCC2)O1 | Toxic | 48.2
4 | 15.2 | 68.3 |  |  |  |  |  |  |  |  |  |  |  | O=C1C=CC[C@@H]([C@H]2C[C@@H]2c2ccccc2)O1 | Toxic | 34.9
5 | 70.3 | > 100 |  |  |  |  |  |  |  |  |  |  |  | O=C1C=CC[C@@H](/C=C/c2ccccc2)O1 | Toxic | > 100
6 | 31 | > 100 | 79 | 98 | 56 | 18 | 91 | -8 |  |  |  |  |  | O=C1C=CC[C@H](/C=C/C2CCCCC2)O1 | Toxic | 29
7 | 15.4 | 28.8 |  |  |  |  |  |  | 51 | 79.3 | 50 | 21 | 54 | O=C1C=CC[C@H](/C=C/c2ccc([N+](=O)[O-])cc2)O1 | Toxic | 6.7
8 | 62.8 | > 100 |  |  |  |  |  |  |  |  |  |  |  | O=C1C=CC[C@H]([C@@H]2C[C@H]2c2ccccc2)O1 | Toxic | 43.4
9 | 11.6 | 48.2 |  |  |  |  |  |  |  |  |  |  |  | O=C1C=CC[C@H]([C@H]2C[C@@H]2c2ccccc2)O1 | Toxic | 14.4
10 | > 100 | 88.7 |  |  |  |  |  |  |  |  |  |  |  | COc1ccc(/C=C/[C@@H]2CC=CC(=O)O2)cc1 | Toxic | > 100
11 | > 100 | > 100 |  |  |  |  |  |  |  |  |  |  |  | C[C@H](Cc1ccccc1)[C@H]1CCCC(=O)O1 | Toxic | > 100
12 | > 100 | > 100 |  |  |  |  |  |  |  |  |  |  |  | O=C1CCC[C@H]([C@@H]2C[C@H]2c2ccccc2)O1 | Toxic | > 100
13 | > 100 | > 100 |  |  |  |  |  |  |  |  |  |  |  | C[C@@H](Cc1ccccc1)[C@H]1CCCC(=O)O1 | Toxic | > 100
14 | > 100 | > 100 | 40.7 | 71 | 26.3 | 75 | 99 | 10 |  |  |  |  |  | O=C1C=CC[C@@H](/C=C/c2ccc(F)cc2)O1 | Toxic | > 100
15 | > 100 | > 100 |  |  |  |  |  |  |  |  |  |  |  | O=C1CCC[C@H]([C@H]2C[C@@H]2c2ccccc2)O1 | Toxic | > 100
16 | 5.7 | 55.5 | 30 | 71.7 | 24.3 | 10 | 60 | -2 |  |  |  |  |  | O=C1C=CC[C@H](/C=C/c2ccccc2)O1 [GONIOTHALAMIN] | Toxic | 20.9
17 | 10.2 | 76.2 |  |  |  |  |  |  |  |  |  |  |  | O=C1C=CC[C@H](/C=C/c2ccc(F)cc2)O1 | Toxic | 14.1
18 | > 100 | > 100 |  |  |  |  |  |  |  |  |  |  |  | O=C1C=CC[C@@H](/C=C/c2ccc([N+](=O)[O-])cc2)O1 | Toxic | > 100
19 | > 100 | > 100 | 8.7 | 25.7 | 0 | 4 | 44 | 0 |  |  |  |  |  | COc1ccc(/C=C/[C@H]2CC=CC(=O)O2)cc1 | Non-Toxic | > 100
